The record followed here is ChEMBL document CHEMBL1949661, “Hit to lead evaluation of 1,2,3-triazolo[4,5-b]pyridines as PIM kinase inhibitors” (Bioorg Med Chem Lett, 2012).

Series [1] in a line: Metabolic stability in human liver microsomes assessed as compound remaining at 1 uM after 15 mins. As to conditions: read-out: Stability. It is filed as ADME, Microsome.
A short description of series [2]: Metabolic stability in CD-1 mouse liver microsomes assessed as compound remaining at 1 uM after 15 mins. It is filed as ADME, Microsome. Particulars: read-out: Stability. A general note: Liver microsomes are a subcellular fraction often used to study metabolism.
Series [3] can be described thus: Metabolic stability in Sprague-Dawley rat liver microsomes assessed as compound remaining at 1 uM after 15 mins. It is filed as ADME, Microsome. Particulars: read-out: Stability.
Series [4] can be described thus: Half life in BALB/C mouse plasma at 5 mg/kg, iv. It is filed as ADME, organism-based. The arrangement: dose 5 mg/kg, route intravenous.
Series [5] can be described thus: Plasma clearance in BALB/C mouse at 5 mg/kg, iv. It is filed as ADME, organism-based. Further details: dose 5 mg/kg, route intravenous.

`COc1cc(NCC2CCNCC2)nc2c1nnn2-c1cccc(OC(F)(F)F)c1`: the remaining at […], 1 µM in series [1] came out at 97%; in series [2], 80%; in series [3], 91%. In series [4], this compound had a half-life of 57 min. Moreover, in series [5], the clearance is 54.7 mL/min/kg.

A word on the half-life: it is how long it takes for the measured level to halve. The low end stands for fast loss, the high end for slow loss. As a reminder, the clearance is a measure of how efficiently the substance is removed, as volume per time.
